Publication PMC3791928, “Preparation and First Preclinical Evaluation of [^18F]FE@SNAP: A Potential PET Tracer for the Melanin-Concentrating Hormone Receptor-1 (MCHR1)” (Scientia Pharmaceutica, 2013)
Where a name gives a salt, the structure may show the parent alone. Read-outs that look alike come from different tables or passages of the source.

Legend:
[1] = molecular target: T1, hMCHR1 (Homo sapiens, UniProt Q99705); assay: saturation binding of [^18F]FE@SNAP on CHO-K1 cell membranes expressing hMCHR1; details: CHO-K1 membranes expressing hMCHR1, room temperature, 120 min, n=2
T1 construct: purchased PerkinElmer; host or cells: CHO-K1 cell membranes (recombinant expression)
Description: The method used was conducted according to Mashiko et al. with minor modifications. CHO-K1 cell membranes expressing hMCHR1 (10 μg/mL) were dissolved in 500 μL and a 50 mM Tris buffer (pH 7.4) (containing 10 mM MgCl2, 2 mM EDTA, 0.1% bacitracin and 0.2% BSA). For the evaluation of the equilibrium dissociation constant (Kd) of [^18F]FE@SNAP, several concentrations (0–500 nM) of [^18F]FE@SNAP were added. The membranes were incubated in vials at room temperature for 120 min. Bound and free fractions of the radioligand were separated by centrifugation at 40.000 × g for 20 min. The supernatants were removed into new vials. The pellets were washed with 800 μL of the ice cold Tris buffer, which was added to the supernatant, and the pellets were dissolved in 1300 μL of the Tris buffer. The radioactivity in the vials was measured by a Gamma Counter. The Kd values were calculated by using GraphPad Prism software Version 5.0 (La Jolla, CA, USA).

[2] = HPLC-based logD analysis; type: physicochemical; details: ODP-50 column, phosphate buffer pH 7.4, n=3
Description: LogD values were determined using an HPLC-based assay according to Donovan and Pescatore. A cocktail of two internal standards (toluene and triphenylene) with known logD and k′ values and FE@SNAP in methanol were injected into a short polymeric ODP-50 column. A linear gradient from 10% methanol/90% phosphate buffer (pH 7.4) to 100% methanol within 9.4 min at a flow rate of 1.5 mL/min was applied. Detection was performed at 260 nm and 285 nm.

[3] = plasma stability in rat plasma; type: in vitro ADME; details: for degradation in rat plasma (in words): after 120 min
Description: (§1) The stability of [^18F]FE@SNAP in human and rat plasma was determined according to Nics et al.. 1800 μL of lithium-heparinized plasma (rat and human, respectively) were pre-incubated under physiological conditions (PBS, pH 7.4, 37°C) in a shaking incubator for 5 minutes. 36 μL [^18F]FE@SNAP (corresponding to 2% ethanol v/v in the total volume) were added and the plasma vial was vortexed for at least 10 seconds. After defined points in time (0 and 120 min), 500 μL of the incubation-mixture were added to a preconditioned (with 5 mL methanol followed by 5 mL water) SPE-cartridge (Oasis). The cartridge was then eluted into a collection tube, washed with 5 mL of 5% methanol in water (v/v) into a second tube, and eluted with 3 mL of THF into a third tube. 20 μL of the eluate-solution of tube two and three were injected into the analytical HPLC (mobile phase: (water/acetic acid 97.5/2.5 v/v; 2.5 g/L ammonium acetate; pH 3.5)/acetonitrile 70/30 v/v; flow: 2mL/min).

[4] = plasma stability in human plasma; type: in vitro ADME; details: 37°C, pH 7.4, n=6
Description: as §1

[5] = tested on: CYP450, human liver microsomes; assay: stability against liver microsomes (CYP450), human; type: in vitro ADME; details: after 60 min, n=4
Description: (§2) The method used was described by Nics et al.. Briefly, liver microsomes (pooled from human or rat origin) were pre-incubated under physiological conditions (PBS, pH 7.4, 37°C) with a NADPH-generating system (solution-A: NADP+, glucose-6-phosphate and magnesium-chloride in H2O and solution-B: glucose-6-phosphate dehydrogenase in sodium citrate) for 5 min. 6 μL of [^18F]FE@SNAP, which correspond to 2% ethanol (v/v) in the total volume, were added. Enzymatic reactions were stopped after defined points in time (0, 2, 5, 10, 20, 40, and 60 min) by adding the same amount of ice-cold acetonitrile/methanol (10:1). The mixtures were vortexed, followed by a centrifugation step (23.000 × g, 5 min). Aliquots of the obtained supernatant were analyzed by an analytical HPLC (for conditions see Plasma Stability).

[6] = plasma free fraction (centrifugal filter units); type: in vitro ADME; details: human plasma, n=3
Description: The method used was modified from Parsey et al.. 1 mL of heparinized plasma (rat and human, respectively) were mixed with 10–50 μL [^18F]FE@SNAP. 200 μL aliquots were pipetted into the centrifugal filter units and the total radioactivity was measured in a Gamma Counter. After the centrifugation step (2.000 × g, 50 min), 50 μL of the obtained filtrate was back-measured for radioactivity. For the determination of the plasma free fraction (f1), the ratio of filtrate to total activity concentration was calculated.

[7] = tested on: CYP450, rat liver microsomes; assay: stability against liver microsomes (CYP450), rat; type: in vitro ADME; details: after 60 min, n=4
Description: as §2

[8] = design: method as in PMID 23829932; details: evaluated previously; cited from earlier work
[9] = design: method as in PMID 10908045; details: cited from earlier work
[10] = molecular target: human MCHR1 (hMCHR1); design: method as in PMID 12118247; details: Cos-7 cells expressing the human MCHR1; cited from earlier work
[11] = molecular target: T2, hMCHR2 (Homo sapiens, UniProt Q969V1); assay: preliminary competition binding against [^125I]MCH on hMCHR2
T2 construct: purchased PerkinElmer; host or cells: CHO-K1 cell membranes (recombinant expression)
Text: [^18F]fluoride was produced via the ^18O(p,n)^18F reaction in a GE PET trace cyclotron (16.5-MeV protons; GE Medical Systems, Uppsala, Sweden). H2^18O (HYOX18; > 98%) was purchased from Rotem Europe (Leipzig, Germany). Typical beam currents were 48–52 μA and irradiation was stopped as soon as the desired activity level was reached (approx. 25–30 GBq). Anion-exchange cartridges (PS-HCO3) for [^18F]fluoride trapping were obtained from Macherey-Nagel (Dueren, Germany). The precursor compound (Tos@SNAP; 4, Fig. 1) and the reference standard (FE@SNAP) were synthesized in cooperation with the Department of Drug and Natural Product Synthesis of the University of Vienna (Austria). Solid phase extraction (SPE) cartridges SepPak® C18-plus and the Oasis HLB 6cc Vac (200 mg) were purchased from Waters (Waters® Associates, Milford, MA, USA). Sterile water Ecotainer® and 0.9% saline solution were purchased from B. Braun (Melsungen, Germany). 3% saline solution was obtained from a local pharmacy (Landesapotheke Salzburg, Austria). A 125 mM phosphate buffer was prepared by dissolving 0.224g sodium dihydrogen phosphate-monohydrate and 1.935g disodium hydrogen phosphate-dihydrate (both from Merck, Darmstadt, Germany) in 100 mL of sterile water. Phosphate-buffered saline (PBS) concentrate (10:1) was obtained from Morphisto (Frankfurt, Germany). […]

[12] = tested on: porcine carboxylesterase; assay: stability against carboxylesterase (Michaelis-Menten kinetics); type: in vitro ADME; details: porcine carboxylesterase 80 I.U., PBS pH 7.4, 37°C
Description: The method used was slightly modified from Nics et al.. Incubations of different amounts (10, 30, 50, 70, 100, 200 μg/ml) of FE@SNAP were accomplished with a constant quantity of 80 International Units (I.U.) of porcine carboxylesterase under physiological conditions (PBS, pH 7.4, 37°C). The use of selected concentrations of FE@SNAP was based on an optimal choice to create Michaelis-Menten kinetics (MMK). 35 μl of the incubation-mixture were stopped after defined points in time (0, 60, 120, 180, and 240 min) by adding the same amount of ice-cold acetonitrile/methanol (10:1) and then vortexed. After centrifugation of the reaction mixtures (23.000 × g, 5 min), 20 μL of the obtained supernatant were analyzed by analytical HPLC (for conditions see Plasma Stability). The MMK of FE@SNAP was calculated by using GraphPad Prism software Version 5.0 (La Jolla, CA, USA).

T1 sequence (Q99705 whole entry): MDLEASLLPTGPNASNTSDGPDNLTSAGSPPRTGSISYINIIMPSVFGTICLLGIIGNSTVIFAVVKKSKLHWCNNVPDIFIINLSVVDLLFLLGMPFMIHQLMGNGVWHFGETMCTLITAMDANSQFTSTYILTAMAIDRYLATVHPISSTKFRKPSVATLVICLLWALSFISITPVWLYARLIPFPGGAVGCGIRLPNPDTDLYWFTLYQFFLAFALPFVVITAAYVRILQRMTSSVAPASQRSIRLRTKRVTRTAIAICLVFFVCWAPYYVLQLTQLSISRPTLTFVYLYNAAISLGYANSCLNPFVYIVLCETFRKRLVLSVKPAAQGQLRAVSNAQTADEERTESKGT
T2 sequence (Q969V1 whole entry): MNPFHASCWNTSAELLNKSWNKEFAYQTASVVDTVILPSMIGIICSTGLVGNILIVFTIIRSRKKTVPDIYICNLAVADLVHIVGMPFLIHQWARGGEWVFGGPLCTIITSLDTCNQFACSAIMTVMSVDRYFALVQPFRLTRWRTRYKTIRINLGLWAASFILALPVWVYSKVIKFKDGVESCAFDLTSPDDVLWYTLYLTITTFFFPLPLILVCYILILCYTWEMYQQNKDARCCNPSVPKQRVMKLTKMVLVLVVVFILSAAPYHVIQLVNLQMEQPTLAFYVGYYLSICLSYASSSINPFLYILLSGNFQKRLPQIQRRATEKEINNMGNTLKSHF

Structure (SMILES): COCC1=C(C(=O)OCC[18F])[C@H](c2ccc(F)c(F)c2)N(C(=O)NCCCN2CCC(c3cccc(NC(C)=O)c3)CC2)C(=O)N1 [[^18F]FE@SNAP]
- Kd [1]: 2.9 nM
- chromatographic logD ([2]; polymeric ODP-50 HPLC column): 3.83
- degradation in rat plasma (in words) [3]: completely metabolized
- degradation in rat plasma ([3]; initially (0 min), 37°C, pH 7.4, n=11): 32.44 ± 33.5%
- degradation in human plasma ([4]; after 0 min): 0.48 ± 0.5%
- degradation in human plasma ([4]; after 120 min): 3.87 ± 3.9%
- enzymatic degradation by CYP450 [5]: 5.39 ± 1.6%
- fraction unbound ([6]; heparinized plasma, read-out: plasma free fraction (f1)): 0.126 ± 0.002
- enzymatic degradation by CYP450 [7]: 2.59 ± 1.8%

Structure (SMILES): COCC1=C(C(=O)O[11CH3])[C@H](c2ccc(F)c(F)c2)N(C(=O)NCCCN2CCC(c3cccc(NC(C)=O)c3)CC2)C(=O)N1 [[^11C]SNAP-7941]
- degradation in rat plasma (in words) [8]: rapid enzymatic degradation

Structure (SMILES): COc1ccccc1N1CCN(CCN(c2ccccn2)[11C](=O)C2CCCCC2)CC1 [[carbonyl-^11C]WAY-100635]
- plasma free fraction [9]: 5.8 ± 0.2%

Structure (SMILES): COCC1=C(C(=O)OC)[C@H](c2ccc(F)c(F)c2)N(C(=O)NCCCN2CCC(c3cccc(NC(C)=O)c3)CC2)C(=O)N1 [SNAP-7941, (+)-methyl (4S)-3-{[(3-{4-[3-(acetylamino)phenyl]-1-piperidinyl}propyl)amino]carbonyl}-4-(3,4-difluorophenyl)-6-(methoxymethyl)-2-oxo-1,2,3,4-tetrahydro-5-pyrimidinecarboxylate hydrochloride]
- Kd [10]: 0.18 nM

Structure (SMILES): COCC1=C(C(=O)OCCF)C(c2ccc(F)c(F)c2)N(C(=O)NCCCN2CCC(c3cccc(NC(C)=O)c3)CC2)C(=O)N1 (stereo not drawn) [FE@SNAP]
- Ki [11]: > 1000 nM
- logD [2]: 3.83 ± 0.1
- degradation in rat plasma (in words) [3]: complete
- limiting velocity (Vmax) [12]: 0.874 µM/min
- Km ([12]; read-out: Michaelis-Menten constant (Km)): 347 µM
- plasma free fraction (f1) [6]: 12.6 ± 0.2%
